Columns and labels:
[1] = test system: IL-1β production in PMA-differentiated THP-1 cells; assay: IL-1β production in PMA-differentiated THP-1 cells stimulated with gramicidin (hTHP-1 assay, 2% fetal bovine serum); assay type: cell-based, human
Protocol: THP-1 cells were purchased from the American Type Culture Collection and sub-cultured according to instructions from the supplier. Cells were cultured in complete RPMI 1640 (containing 10% heat inactivated FBS, penicillin (100 units/ml) and streptomycin (100 μg/ml)), and maintained in log phase prior to experimental setup. Prior to the experiment, compounds were dissolved in dimethyl sulfoxide (DMSO) to generate a 30 mM stock. The compound stock was first pre-diluted in DMSO to 3, 0.34, 0.042 and 0.0083 mM intermediate concentrations and subsequently spotted using Echo550 liquid handler into an empty 384-well assay plate to achieve desired final concentration (e.g. 100, 33, 11, 3,7, 1.2, 0.41, 0.14, 0.046, 0.015, 0.0051, 0.0017 μM). DMSO was backfilled in the plate to achieve a final DMSO assay concentration of 0.37%. The plate was then sealed and stored at room temperature until required. THP-1 cells were treated with PMA (Phorbol 12-myristate 13-acetate) (20 ng/ml) for 16-18 hours. On the day of the experiment the media was removed and adherent cells were detached with trypsin for 5 minutes. Cells were then harvested, washed with complete RPMI 1640, spun down, and resuspended in RPMI 1640 (containing 2% heat inactivated FBS, penicillin (100 units/ml) and streptomycin (100 μg/ml). The cells were plated in the 384-well assay plate containing the spotted compounds at a density of 50,000 cells/well (final assay volume 50 μl). Ceils were incubated with compounds for 1 hour and then stimulated with gramicidin (5 μM) (Enzo) for 2 hours. Plates were then centrifuged at 340 g for 5 min. Cell free supernatant (40 μL) was collected using a 96-channel PlateMaster (Gilson) and the production of IL-1β was evaluated by HTRF (cisbio). The plates were incubated for 18 h at 4° C. and read using the preset HTRF program (donor emission at 620 nm, acceptor emission at 668 nm) of the SpectraMax i3x spectrophotometer (Molecular Devices, software SoftMax 6). A vehicle only control and a dose titration of CRID3 (100-0.0017 μM) were run concurrently with each experiment. Data was normalized to vehicle-treated samples (equivalent to 0% inhibition) and CRID3 at 100 μM (equivalent to 100% inhibition).
Procedure 2: IL-1β Production in PMA-Differentiated THP-1 Cells Stimulated with Gramicidin
THP-1 cells were purchased from the American Type Culture Collection and sub-cultured according to instructions from the supplier. Prior to experiments, cells were cultured in complete RPMI 1640 (containing 10% heat inactivated FBS, penicillin (100 units/ml) and streptomycin (100 μg/ml)), and maintained in log phase prior to experimental setup. Prior to the experiment THP-1 were treated with PMA (Phorbol 12-myristate 13-acetate) (20 ng/mi) for 16-18 hours. Compounds were dissolved in dimethyl sulfoxide (DMSO) to generate a 30 mM stock. On the day of the experiment the media was removed and adherent cells were detached with trypsin for 5 minutes. Cells were then harvested, washed with complete RPMI 1640, spun down, resuspended in RPMI 1640 (containing 2% heat inactivated FBS, penicillin (100 units/ml) and streptomycin (100 μg/ml), The cells were plated in a 384-well plate at a density of 50,000 cells/well (final assay volume 50 μl). Compounds were first dissolved in assay medium to obtain a 5× top concentration of 500 μM. 10 step dilutions (1:3) were then undertaken in assay medium containing 1.67% DMSO. 5× compound solutions were added to the culture medium to achieve desired final concentration (e.g. 100, 33, 11, 3.7, 1.2, 0.41, 0.14, 0.046, 0.015, 0.0051, 0.0017 μM). Final DMSO concentration was at 0.37%. Cells were incubated with compounds for 1 hour and then stimulated with gramicidin (5 μM) (Enzo) for 2 hours. Plates were then centrifuged at 340 g for 5 min. Cell free supernatant (40 μL) was collected using a 96-channel PlateMaster (Gilson) and the production of IL-1β was evaluated by HTRF (cisbio). […]

[2] = Colon pharmacokinetics in mice; assay type: in vivo; settings: colon to plasma concentration ratio at 8 h time point, 30 mg/kg oral gavage in 0.5% methyl-cellulose, Male C57BL/6 Mouse; for Kp at 8 h: read-out: Mouse TD Colon/Plasma @ 8
Protocol: Assay 2: Colon Pharmacokinetics in Mice
The test compound was formulated in 0.5% methyl-cellulose in water and dosed via oral gavage at 30 mg/kg to Male C57BL/6 Mouse. At various time points (typically 15 min, 30 min, 1, 2, 4, 6 and 8 h) post dosing, blood samples were removed via cardiac […] puncture and intact colons were excised from the […]. Blood samples were centrifuged at 1500 x g for 15 min to collect plasma. At the terminal time point each individual animal is anaesthetized, abdominal cavity is opened and from 2 cm below the caecum a 4 cm sample of the colon is dissected, cut open on the longitudinal axis and the solid contents removed by flushing with 2 mL of physiological fluid. The colon was further washed by putting it in 5 mL of physiological saline and shaken for 1 minute. The colon was pet dry weighed and transferred in 2 mL tubes. Colon will be weighted and homogenized with water by tissue weight (g) to water volume (mL) at ratio 1:3 before analysis. The actual concentration is the detected value multiplied by the dilution factor. A colon to plasma ratio was determined as the ratio of the colon cone, to the plasma cone, in pg hr/g, at 8 h time point.

[3] = Homo sapiens, THP-1, average IC50, hTHP-1 assay containing 2% fetal bovine serum, class symbols
[4] = average IC50, hTHP-1 assay containing 2% fetal bovine serum, class symbols
[5] = Homo sapiens, THP-1, average IC50, hTHP-1 assay containing 2% fetal bovine serum, given as numeric bound

Question: Which results are given for `CC(C)c1cc(C#N)cc(C(C)C)c1NC(=O)NS(=O)(=O)c1sc(C(C)(C)O)nc1CO` [Compound 101]?
Answer: IC50 [1, 3]: 200 to 1000 nM; Kp at 8 h [2]: 3000

Question: What does the source list for `CC(C)c1cc(C#N)c(F)c(C(C)C)c1NC(=O)NS(=O)(=O)c1sc(C(C)(C)O)nc1CCO` [Compound 102]?
Answer: IC50 [1, 3]: 40 to 200 nM; Kp at 8 h [2]: 802

Question: For `CNS(=O)(=O)c1ccc(S(=O)(=O)NC(=O)Nc2c3c(nc4c2CCC4)CCC3)c(CO)c1` [Compound 103], which IC50 [1, 3] is on record?
Answer: The IC50 was 200 to 1000 nM.

Question: For `CC(C)c1cncc(C(C)C)c1NC(=O)NS(=O)(=O)c1sc(C(C)(C)O)nc1CO` [Compound 104], which IC50 [1, 3] is on record?
Answer: Its IC50 is 1000 to 5000 nM.

Question: Which IC50 [1, 3] does the source give for `CNS(=O)(=O)c1ccc(S(=O)(=O)NC(=O)Nc2c(C(C)C)cncc2C(C)C)c(CO)c1` [Compound 105] here?
Answer: The IC50 was 1000 to 5000 nM.

Question: For `CC(C)c1cc2c(c(C(C)C)c1NC(=O)NS(=O)(=O)c1sc(C(C)(C)O)nc1CO)COC2` [Compound 106], which IC50 [1, 3] is on record?
Answer: Its IC50 is 200 to 1000 nM.

Question: Which IC50 ([1]; Homo sapiens, THP-1) does the source give for `CC(C)c1nc(-c2cccc(C(F)(F)F)c2)c(F)c(C(C)C)c1NC(=O)NS(=O)(=O)c1sc(C(C)(C)O)nc1CO[Si](C)(C)C(C)(C)C` [Compound 107] here?
Answer: The IC50 was 1000 to 5000 nM.

Question: For `CNS(=O)(=O)c1ccc(S(=O)(=O)NC(=O)Nc2c3c(nc4c2CCC4)CCC3)c(OC)c1` [Compound 108], which IC50 [1, 3] is on record?
Answer: The IC50 was 1000 to 5000 nM.

Question: With `CNS(=O)(=O)c1ccc(S(=O)(=O)NC(=O)Nc2c(C(C)C)cncc2C(C)C)cc1CO` [Compound 109] as the compound, how does the IC50 [1, 3] read?
Answer: Its IC50 is 1000 to 5000 nM.

Question: Which IC50 [1, 3] does the source give for `CC(C)(O)c1nc(CO)c(S(=O)(=O)NC(=O)Nc2c3c(nc4c2CCC4)CCC3)s1` [Compound 111] here?
Answer: The IC50 was 1000 to 5000 nM.

Question: With `CC(C)c1c(F)c(C#N)cc(C2CCOCC2)c1NC(=O)NS(=O)(=O)c1sc(C(C)(C)O)nc1CO` [Compound 112] as the compound, how does the IC50 [1, 3] read?
Answer: The IC50 was 1000 to 5000 nM.

Question: For `CCC(C)c1cc(C#N)c(F)c(C(C)C)c1NC(=O)NS(=O)(=O)c1sc(C(C)(C)O)nc1CO` (stereo not shown) [Compound 113], which IC50 [1, 3] is on record?
Answer: The IC50 was 200 to 1000 nM.

Question: And the Kp at 8 h [2]?
Answer: Its Kp at 8 h is 4560.

Question: With `CC(C)c1cc(C#N)cc(CCO)c1NC(=O)NS(=O)(=O)c1sc(C(C)(C)O)nc1CO` [Compound 114] as the compound, how does the IC50 [1, 3] read?
Answer: Its IC50 is 5000 to 30000 nM.

Question: With `CNS(=O)(=O)c1ccc(S(=O)(=O)NC(=O)Nc2c(C(C)C)cc(C#N)cc2C(C)C)c(C(=O)OC)c1` [Compound 115] as the compound, how does the IC50 [1, 3] read?
Answer: The IC50 was 5000 to 30000 nM.

Question: Which results are given for `CNS(=O)(=O)c1ccc(S(=O)(=O)NC(=O)Nc2c(C(C)C)cc(C#N)cc2C(C)C)c(CO)c1` [Compound 116]?
Answer: IC50 [1, 3]: 200 to 1000 nM; Mouse TD Colon/Plasma @ 8 [2]: 18,645

Question: Which IC50 [1, 3] does the source give for `CNS(=O)(=O)c1ccc(S(=O)(=O)NC(=O)Nc2c(C(C)C)cc(C#N)c(F)c2C(C)C)c(O)c1` [Compound 117] here?
Answer: The IC50 was 40 to 200 nM.

Question: Which results are given for `CNS(=O)(=O)c1ccc(S(=O)(=O)NC(=O)Nc2c(C(C)C)cc(C#N)c(F)c2C(C)C)c(OC)c1` [Compound 118]?
Answer: IC50 [1, 4]: 200 to 1000 nM; Kp at 8 h [2]: 5950

Question: Which IC50 [1, 3] does the source give for `CNS(=O)(=O)c1ccc(S(=O)(=O)NC(=O)Nc2c(C(C)C)cc(C#N)cc2C(C)C)c(O)c1` [Compound 119] here?
Answer: Its IC50 is 40 to 200 nM.

Question: With `CNS(=O)(=O)c1ccc(S(=O)(=O)NC(=O)Nc2c(C(C)C)cc(C#N)c(F)c2C(C)C)c(OC)c1` [Compound 120] as the compound, how does the IC50 [1, 4] read?
Answer: Its IC50 is 40 to 200 nM.

Question: With `CC(C)c1cc(C#N)cc(C2CC2)c1NC(=O)NS(=O)(=O)c1sc(C(C)(C)O)nc1CO` [Compound 121] as the compound, how does the IC50 [1, 3] read?
Answer: Its IC50 is 1000 to 5000 nM.

Question: What does the source list for `CC(C)(O)c1nc(CO)c(S(=O)(=O)NC(=O)Nc2c3c(c(C#N)c4c2CCC4)CCC3)s1` [Compound 122]?
Answer: IC50 [1, 3]: 1000 to 5000 nM; Kp at 8 h [2]: 3530

Question: With `CC(C)c1cc(C#N)c(F)c(C(C)C)c1NC(=O)NS(=O)(=O)c1sc(C(C)(C)O)nc1CO` [Compound 123] as the compound, how does the IC50 [1, 3] read?
Answer: Its IC50 is 200 to 1000 nM.

Question: And the “Mouse TD Colon/Plasma @ 8” value [2]?
Answer: Its value is 12,731.

Question: Which IC50 [1, 3] does the source give for `CNS(=O)(=O)c1ccc(S(=O)(=O)NC(=O)Nc2c3c(cc4c2CCC4)CCC3)c(O)c1` [Compound 124] here?
Answer: The IC50 was 5000 to 30000 nM.

Question: And the Kp at 8 h [2]?
Answer: The Kp at 8 h was 26.

Question: Which IC50 [1, 3] does the source give for `CC(C)(O)c1nc(CO)c(S(=O)(=O)NC(=O)Nc2c3c(nc4c2CCC4(C)C)CCC3)s1` [Compound 201] here?
Answer: The IC50 was 200 to 1000 nM.

Question: Which IC50 [1, 3] does the source give for `CC1CCc2c1nc1c(c2NC(=O)NS(=O)(=O)c2sc(C(C)(C)O)nc2CO)CCC1` (stereo not shown) [Compound 202] here?
Answer: The IC50 was 200 to 1000 nM.

Question: Which IC50 [1, 3] does the source give for `CNS(=O)(=O)c1ccc(S(=O)(=O)NC(=O)Nc2c3c(nc4c2CCC4C)CCC3)c(CO)c1` (stereo not shown) [Compound 203] here?
Answer: Its IC50 is 1000 to 5000 nM.

Question: Which IC50 [1, 5] does the source give for `CC(C)c1c(F)c(C#N)cc(C2CCOCC2)c1NC(=O)NS(=O)(=O)c1sc(C(C)(C)O)nc1CO` [Compound 204] here?
Answer: Its IC50 is greater than 15000 nM.

Question: For `CC(C)c1cc(C#N)c(F)c(C(C)C)c1NC(=O)NS(=O)(=O)c1cc(C(C)(C)O)no1` [Compound 301], which IC50 [1, 3] is on record?
Answer: Its IC50 is 200 to 1000 nM.

Question: With `Cc1cc(C(=O)NCCc2ccc(S(=O)(=O)NC(=O)Nc3c(C(C)C)cc(C#N)cc3C(C)C)cc2)no1` [Compound 302] as the compound, how does the IC50 [1, 5] read?
Answer: Its IC50 is greater than 30000 nM.

Question: For `Cc1cc(C(=O)NCCc2ccc(S(=O)(=O)NC(=O)Nc3c4c(cc5c3CCC5)CCC4)cc2)no1` [Compound 303], which IC50 [1, 5] is on record?
Answer: Its IC50 is greater than 30000 nM.

Question: With `COC(=O)c1sc2c(c1NC(=O)NS(=O)(=O)c1ncc(C(C)(C)O)s1)CCCC2` [Compound 304] as the compound, how does the IC50 [1, 3] read?
Answer: Its IC50 is 5000 to 30000 nM.

Question: With `O=C(CCCC[C@@H]1SC[C@@H]2NC(=O)N[C@@H]21)NCCCn1cc(CCC(=O)Nc2cccc(S(=O)(=O)NC(=O)Nc3c4c(cc5c3CCC5)CCC4)c2)nn1` [Compound 324] as the compound, how does the IC50 [1, 5] read?
Answer: Its IC50 is greater than 30000 nM.

Source: patent US20220267276A1, “NLRP MODULATORS” (Novartis AG, priority 2018, published 2022)
